What all share (assay): NCI anticancer screen, dose series, 48 h
The test system of assay [1] is NCI-H23.
For assay [2], the system named is UACC-62.
The test system of assay [3] is HCT-15.
The test system of assay [4] is MDA-N.
In assay [5] the test system is EKVX.
Assay [6] relates to CAKI-1.
The test system of assay [7] is NCI-H460.
The test system of assay [8] is U-251.
The subject of assay [9] is MDA-MB-231.
Assay [10] relates to A549.
The subject of assay [11] is DU-145.
Assay [12] deals with OVCAR-8.
Assay [13] has as its system SN12C.
Assay [14] deals with UO-31.
Assay [15] concerns M14.
Assay [16] has as its system MCF7.
The subject of assay [17] is Hs-578T.
Assay [18] has as its system COLO 205.
Assay [19] concerns SK-OV-3.

These results are taken from ChEMBL document CHEMBL1201862, “PubChem BioAssay data set” (2004).

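Exposure lasted 48 hours, with cells grown in 96-well plates and compounds tested at five concentrations. At the GI50, growth is halved.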 Calls of active or inactive are those of the source. Cut-off read from the data, not from the text of the source: active = GI50 up to about 1.1 µM and inactive = higher.

On to `O=C(O)c1cc(O)nc(SCc2ccccc2)n1`, for which the GI50 in assay [1] was > 100 µM (inactive); in [2] it was > 100 µM (inactive); in assay [3], above 100 µM; in assay [4], > 100 µM (inactive); in [5], > 100 µM (inactive); in assay [6] it was > 100 µM (inactive). The GI50 in [7], in [8], in assay [9], in [10], in assay [11] and in [12] was > 100 µM (inactive) throughout. In addition, the GI50 in assay [13], in [14] and in assay [15] was > 100 µM (inactive) throughout.

Take `CCOC(=O)C1CCC(=O)N1C(=O)c1ccccc1` (configuration not stated): the GI50 was > 100 µM (inactive) in assay [1]; 7.83 µM (inactive) in assay [2]; > 100 µM (inactive) in assay [16]; above 100 µM in assay [3]; > 100 µM (inactive) in [5]; > 100 µM (inactive) in assay [6]. Also, the GI50 in assay [7], in [17], in assay [8], in assay [9], in assay [10] and in assay [11] was > 100 µM (inactive) each time. In addition, the GI50 in assay [12], in assay [13], in [14] and in assay [15] was > 100 µM (inactive) in each case.

Take `C[C@@H](c1ccccc1)n1c(N)c(C#N)c2ccc([N+](=O)[O-])cc2c1=O`: the GI50 in assay [1] was 18.9 µM (inactive); in assay [2] it was 13.2 µM (inactive); in assay [3], 12.9 µM; in [4], 23.1 µM (inactive); in [6], 15.1 µM (inactive); in assay [7] it was 14.5 µM (inactive). Besides, the GI50 in [18] was 15 µM (inactive); in [17], 18.2 µM (inactive); in assay [8], 18.7 µM (inactive); in [9] it was 14.9 µM (inactive); in [10] it was > 100 µM (inactive); in [11], 15.9 µM (inactive). Further, the GI50 is 12 µM (inactive) in assay [12], 12 µM (inactive) in [13] and 5.12 µM (inactive) in [14].

In the case of `CN1C(NCCO)=NS(=O)(=O)c2ccccc21`, the GI50 in assay [19] is > 100 µM (inactive); in assay [1], > 100 µM (inactive); in assay [2] it was > 100 µM (inactive); in assay [16], > 100 µM (inactive); in assay [3], above 100 µM; in assay [5], > 100 µM (inactive). For the same molecule, the GI50 in assay [6], in assay [7], in [18], in [17], in assay [8] and in [9] was > 100 µM (inactive) each time. Besides, the GI50 in assay [10], in assay [11], in assay [12], in [13], in [14] and in assay [15] was > 100 µM (inactive) throughout.

As to `COc1ccc(CCNC(=O)CCCCCO)cc1OC`, the GI50 in assay [19] was > 100 µM (inactive); in assay [1], > 100 µM (inactive); in [2], > 100 µM (inactive); in assay [16] it was > 100 µM (inactive); in assay [3], above 100 µM; in [5], > 100 µM (inactive). Besides, the GI50 in assay [6], in assay [7], in assay [18], in [17], in assay [8] and in assay [9] was > 100 µM (inactive) in each case. The GI50 in [10], in [11], in assay [12], in [13], in [14] and in assay [15] was > 100 µM (inactive) each time.

In the case of `Cc1noc(C)c1/N=N/c1ccc2nonc2c1N`, the GI50 in [19] was 36.7 µM (inactive); in assay [1], 46.5 µM (inactive); in assay [2], > 100 µM (inactive); in assay [16] it was > 100 µM (inactive); in assay [3], above 100 µM; in assay [4], > 100 µM (inactive). Besides, the GI50 in assay [5] was 2.66 µM (inactive); in assay [6], > 100 µM (inactive); in assay [7] it was > 100 µM (inactive); in [18] it was > 100 µM (inactive); in assay [9] it was > 100 µM (inactive); in assay [10], > 100 µM (inactive). Besides, the GI50 in [11] was > 100 µM (inactive); in assay [12], > 100 µM (inactive); in assay [13], > 100 µM (inactive); in assay [14], 21 µM (inactive); in assay [15], > 100 µM (inactive).

For the molecule `C/C(=N/NC(=O)c1ccncc1)c1ccc(NC(=O)C(=O)Nn2c(S)nc3ccccc3c2=O)cc1`, the GI50 in assay [19] was > 100 µM (inactive); in [1], > 100 µM (inactive); in assay [2], > 100 µM (inactive); in assay [16], > 100 µM (inactive); in [3], above 100 µM; in assay [5], 72.8 µM (inactive). For the same molecule, the GI50 in assay [6], in assay [7], in [18], in assay [17], in [8] and in [9] was > 100 µM (inactive) each time. Further, the GI50 in [10], in assay [11], in [12], in assay [13], in assay [14] and in assay [15] was > 100 µM (inactive) throughout.

With `O=C1CSC(c2ccccc2O)N1c1ccc(Oc2ccc(Cl)cc2)c(Cl)c1` (configuration not stated), the GI50 in assay [19] was 21 µM (inactive); in [1], 18.1 µM (inactive); in assay [2] it was 16.4 µM (inactive); in [16], 26.6 µM (inactive); in assay [3], 19.5 µM; in assay [5] it was 16.8 µM (inactive). Also, the GI50 in [6] is 23.3 µM (inactive); in assay [7], 19.4 µM (inactive); in [18], 18.5 µM (inactive); in assay [17], 14.9 µM (inactive); in [8], 17.3 µM (inactive); in assay [9] it was 16.9 µM (inactive). The GI50 in [10] is 18.4 µM (inactive); in [11], 21.1 µM (inactive); in [12], 25.5 µM (inactive); in assay [13], 22.1 µM (inactive); in [14], 5.94 µM (inactive); in [15] it was 29.8 µM (inactive).

Regarding `Cn1c2ccccc2n2c3ncccc3c(=O)c(C#N)c12`, the GI50 in [19] was 17.3 µM (inactive); in assay [1], 10.2 µM (inactive); in assay [2] it was 8.41 µM (inactive); in assay [16], 3.81 µM (inactive); in [3], 6.18 µM; in assay [5], 32.8 µM (inactive). For the same molecule, the GI50 in assay [6] is 5.31 µM (inactive); in [7] it was 2.46 µM (inactive); in assay [18] it was 3.91 µM (inactive); in assay [17], 18.9 µM (inactive); in assay [8], 6.38 µM (inactive); in assay [9], 17.9 µM (inactive). Moreover, the GI50 was 5.2 µM (inactive) in [10]; 6.5 µM (inactive) in [11]; 5.27 µM (inactive) in assay [12]; 8.49 µM (inactive) in [13]; 5.62 µM (inactive) in assay [14]; 32.3 µM (inactive) in [15].

As to `Cc1cc(C)c(C(=O)/C(=C/c2ccccc2)c2ccccc2)c(C)c1`, the GI50 was > 100 µM (inactive) in [19]; 40 µM (inactive) in [1]; > 100 µM (inactive) in [2]; 20.6 µM in assay [3]; 72.8 µM (inactive) in assay [5]; 36.8 µM (inactive) in assay [6]. Also, the GI50 was 42.4 µM (inactive) in assay [7]; 91.6 µM (inactive) in [18]; 39.9 µM (inactive) in assay [8]; 38.8 µM (inactive) in [10]; 46.5 µM (inactive) in assay [12]; 41.7 µM (inactive) in assay [13]. The values for the GI50 in assay [14] and in assay [15] were 56.8 µM (inactive) and 49.2 µM (inactive), respectively.

For the molecule `Cc1ccnc(NC(=S)Nc2ccc([N+](=O)[O-])cc2)c1`, the GI50 in assay [19] was 37.9 µM (inactive); in [1], > 100 µM (inactive); in [2], > 100 µM (inactive); in assay [16], > 100 µM (inactive); in assay [3] it was above 100 µM; in assay [5], > 100 µM (inactive). In addition, the GI50 in assay [7] was 80.5 µM (inactive); in assay [17], 24 µM (inactive); in assay [8], 49 µM (inactive); in [11], 34.6 µM (inactive); in [12], 35.5 µM (inactive); in assay [14], > 100 µM (inactive). Also, in assay [15], the GI50 is > 100 µM (inactive).

For the molecule `OCC1OC(n2nc(-c3ccccc3)nc2-c2cnccn2)C(O)C1O` (configuration not stated), the GI50 in assay [19] is > 100 µM (inactive); in [1] it was > 100 µM (inactive); in assay [2], > 100 µM (inactive); in assay [16], > 100 µM (inactive); in assay [3], above 100 µM; in [4] it was > 100 µM (inactive). For the same molecule, the GI50 in assay [5], in [7], in assay [18], in assay [8], in assay [9] and in assay [10] was > 100 µM (inactive) each time. Moreover, the GI50 in [11], in assay [12], in assay [13], in assay [14] and in assay [15] was > 100 µM (inactive) throughout.
